# Measured values published in US11446287B2, “Compounds and methods for EP300 or CBP modulation and indications therefor” (Opna Immuno-Oncology SA, priority 2019, dated 2022).
# Biological target: T1, Recombinant human CBP containing the bromodomain (CBP-BD (1043-1159)) (Homo sapiens, UniProt Q92793)
# T1 construct: Recombinant human CBP bromodomain (CBP-BD (1043-1159)); made in house; host or cells: E. coli BL21-CodonPlus (DE3), modified pET vector
# Test: CBP Alphascreen binding assay
# Conditions: read-out: CREBBP (CBP) IC50
# In short: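 Buffer: 50 mM HEPES pH 7.5, 50 mM NaCl, 0.01% BSA, 0.01% Triton X-100, 2 mM DTT. The signal was normalised to plate controls and fitted with a four-parameter curve to give IC50.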
# T1 sequence (Q92793 1081-1197): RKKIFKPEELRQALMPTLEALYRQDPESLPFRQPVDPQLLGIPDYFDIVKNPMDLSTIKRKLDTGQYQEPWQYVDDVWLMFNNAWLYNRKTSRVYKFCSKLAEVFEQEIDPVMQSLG
row,Compound,IC50 [nM]
1,"CCOc1cc(C(=O)O)nc(OCC)c1-c1cn(-c2cnc(C3CC3)nc2)c2ncc(-c3c(C)noc3C)cc12 [P-0424, 5-(1-(2-cyclopropylpyrimidin-5-yl)-5-(3,5-dimethylisoxazol-4-yl)-1H-pyrrolo[2,3-b]pyridin-3-yl)-4,6-diethoxypicolinic acid]",0.1 to 1000
2,"CCOc1cc(C(=O)O)nc(OCC)c1-c1cn(C2CCC(F)(F)CC2)c2ncc(-c3c(C)noc3C)cc12 [P-0425, 5-(1-(4,4-difluorocyclohexyl)-5-(3,5-dimethylisoxazol-4-yl)-1H-pyrrolo[2,3-b]pyridin-3-yl)-4,6-diethoxypicolinic acid]",0.1 to 1000
3,"CCOc1cc(C(=O)O)ncc1-c1cn(C(C2CC2)C2CC2)c2ncc(-c3c(C)noc3C)cc12 [P-0427, 5-(1-(dicyclopropylmethyl)-5-(3,5-dimethylisoxazol-4-yl)-1H-pyrrolo[2,3-b]pyridin-3-yl)-4-ethoxypicolinic acid]",0.1 to 1000
4,"CCOc1cc(C(=O)O)ncc1-c1cn(C2CCOCC2)c2ncc(-c3c(C)noc3C)cc12 [P-0428, 5-(5-(3,5-dimethylisoxazol-4-yl)-1-(tetrahydro-2H-pyran-4-yl)-1H-pyrrolo[2,3-b]pyridin-3-yl)-4-ethoxypicolinic acid]",0.1 to 1000
5,"CCOc1cc(C(=O)O)nc(OCC)c1-c1cn(-c2cn(C(F)F)nc2C)c2ncc(-c3c(C)noc3C)cc12 [P-0429, 5-(1-(1-(difluoromethyl)-3-methyl-1H-pyrazol-4-yl)-5-(3,5-dimethylisoxazol-4-yl)-1H-pyrrolo[2,3-b]pyridin-3-yl)-4,6-diethoxypicolinic acid]",0.1 to 1000
6,"CCOc1cc(C(=O)O)nc(OCC)c1-c1cn(-c2cn(CC)nc2C)c2ncc(-c3c(C)noc3C)cc12 [P-0430, 5-(5-(3,5-dimethylisoxazol-4-yl)-1-(1-ethyl-3-methyl-1H-pyrazol-4-yl)-1H-pyrrolo[2,3-b]pyridin-3-yl)-4,6-diethoxypicolinic acid]",0.1 to 1000
7,"CCOc1cc(C(=O)O)nc(OCC)c1-n1cc(-c2ccc(F)cc2F)c2ncc(-c3c(C)noc3C)cc21 [P-0431, 5-(3-(2,4-difluorophenyl)-6-(3,5-dimethylisoxazol-4-yl)-1H-pyrrolo[3,2-b]pyridin-1-yl)-4,6-diethoxypicolinic acid]",0.1 to 1000
8,"CCOc1cc(C(=O)OC)nc(OCC)c1-c1cn(-c2ccc(F)cc2F)c2ncc(-c3c(C)noc3C)cc12 [P-0432, methyl 5-(1-(2,4-difluorophenyl)-5-(3,5-dimethylisoxazol-4-yl)-1H-pyrrolo[2,3-b]pyridin-3-yl)-4,6-diethoxypicolinate]",0.1 to 1000
9,"CCOc1cc(C(=O)O)nc(OCC)c1-c1cn(C2CCN(C(=O)OC(C)(C)C)CC2)c2ncc(-c3c(C)noc3C)cc12 [P-0433, 5-(1-(1-(tert-butoxycarbonyl)piperidin-4-yl)-5-(3,5-dimethylisoxazol-4-yl)-1H-pyrrolo[2,3-b]pyridin-3-yl)-4,6-diethoxypicolinic acid]",0.1 to 1000
10,"Cc1noc(C)c1-c1cnc2c(c1)c(C1CCC(C(=O)O)CC1)cn2-c1ccc(F)cc1F (stereo not shown) [P-0434, 4-(1-(2,4-difluorophenyl)-5-(3,5-dimethylisoxazol-4-yl)-1H-pyrrolo[2,3-b]pyridin-3-yl)cyclohexane-1-carboxylic acid]",0.1 to 1000
11,"CCOc1cc(C(=O)O)nc(OCC)c1-c1cn(C2CCN(S(C)(=O)=O)CC2)c2ncc(-c3c(C)noc3C)cc12 [P-0435, 5-(5-(3,5-dimethylisoxazol-4-yl)-1-(1-(methylsulfonyl)piperidin-4-yl)-1H-pyrrolo[2,3-b]pyridin-3-yl)-4,6-diethoxypicolinic acid]",0.1 to 1000
12,"CCOc1cc(C(=O)O)nc(OCC)c1-c1cn(-c2cccnc2)c2ncc(-c3c(C)noc3C)cc12 [P-0436, 5-(5-(3,5-dimethylisoxazol-4-yl)-1-(pyridin-3-yl)-1H-pyrrolo[2,3-b]pyridin-3-yl)-4,6-diethoxypicolinic acid]",0.1 to 1000
13,Cc1noc(C)c1-c1cnc2c(c1)c(-c1ccc(CC(=O)O)cc1F)cn2-c1ccc(F)cc1F [P-0437],0.1 to 1000
14,"Cc1noc(C)c1-c1cnc2c(c1)c(-c1ccc(CC(=O)O)cc1)cn2-c1ccc(F)cc1F [P-0438, 2-(4-(1-(2,4-difluorophenyl)-5-(3,5-dimethylisoxazol-4-yl)-1H-pyrrolo[2,3-b]pyridin-3-yl)phenyl)acetic acid]",0.1 to 1000
15,"Cc1noc(C)c1-c1cnc2c(c1)c(-c1c(Cl)cc(C(=O)O)cc1OC(F)(F)F)cn2-c1cccnn1 [P-0439, 3-chloro-4-(5-(3,5-dimethylisoxazol-4-yl)-1-(pyridazin-3-yl)-1H-pyrrolo[2,3-b]pyridin-3-yl)-5-(trifluoromethoxy)benzoic acid]",0.1 to 1000
16,"COC(=O)c1cc(Cl)c(-c2cn(-c3ccc(C4CC4)nc3)c3ncc(-c4c(C)noc4C)cc23)c(OC(F)(F)F)c1 [P-0440, methyl 3-chloro-4-(1-(6-cyclopropylpyridin-3-yl)-5-(3,5-dimethylisoxazol-4-yl)-1H-pyrrolo[2,3-b]pyridin-3-yl)-5-(trifluoromethoxy)benzoate]",1000 to 8000
17,"Cc1noc(C)c1-c1cnc2c(c1)c(-c1c(Cl)cc(C(=O)O)cc1OC(F)(F)F)cn2-c1ccc(C2CC2)nc1 [P-0441, 3-chloro-4-(1-(6-cyclopropylpyridin-3-yl)-5-(3,5-dimethylisoxazol-4-yl)-1H-pyrrolo[2,3-b]pyridin-3-yl)-5-(trifluoromethoxy)benzoic acid]",0.1 to 1000
18,"CCOc1cc(C(=O)O)c(F)cc1-c1cn(C2CCN(C(=O)OC(C)(C)C)CC2)c2ncc(-c3c(C)noc3C)cc12 [P-0442, 4-(1-(1-(tert-butoxycarbonyl)piperidin-4-yl)-5-(3,5-dimethylisoxazol-4-yl)-1H-pyrrolo[2,3-b]pyridin-3-yl)-5-ethoxy-2-fluorobenzoic acid]",0.1 to 1000
19,"COc1ccc(CC(=O)O)cc1-c1cn(-c2ccc(F)cc2F)c2ncc(-c3c(C)noc3C)cc12 [P-0443, 2-(3-(1-(2,4-difluorophenyl)-5-(3,5-dimethylisoxazol-4-yl)-1H-pyrrolo[2,3-b]pyridin-3-yl)-4-methoxyphenyl)acetic acid]",0.1 to 1000
20,"Cc1noc(C)c1-c1cnc2c(c1)c(-c1cc(F)c(C(=O)O)cc1OC(F)(F)F)cn2-c1ccc(C2CC2)nc1 [P-0444, 4-(1-(6-cyclopropylpyridin-3-yl)-5-(3,5-dimethylisoxazol-4-yl)-1H-pyrrolo[2,3-b]pyridin-3-yl)-2-fluoro-5-(trifluoromethoxy)benzoic acid]",0.1 to 1000
21,"CCOc1cc(C(=O)O)c(F)cc1-c1cn(C2CCN(C(=O)C(C)(C)C)CC2)c2ncc(-c3c(C)noc3C)cc12 [P-0445, 4-(5-(3,5-dimethylisoxazol-4-yl)-1-(1-pivaloylpiperidin-4-yl)-1H-pyrrolo[2,3-b]pyridin-3-yl)-5-ethoxy-2-fluorobenzoic acid]",0.1 to 1000
22,"CCOc1cc(C(=O)O)c(F)cc1-c1cn(C2CCN(CCC#N)CC2)c2ncc(-c3c(C)noc3C)cc12 [P-0446, 4-(1-(1-(2-cyanoethyl)piperidin-4-yl)-5-(3,5-dimethylisoxazol-4-yl)-1H-pyrrolo[2,3-b]pyridin-3-yl)-5-ethoxy-2-fluorobenzoic acid]",0.1 to 1000
23,"CCOc1cc(C(=O)O)c(F)cc1-c1cn(C2CCN(C(=O)CO)CC2)c2ncc(-c3c(C)noc3C)cc12 [P-0447, 4-(5-(3,5-dimethylisoxazol-4-yl)-1-(1-(2-hydroxyacetyl)piperidin-4-yl)-1H-pyrrolo[2,3-b]pyridin-3-yl)-5-ethoxy-2-fluorobenzoic acid]",0.1 to 1000
24,"CCc1onc(C)c1-c1cnc2c(c1)c(-c1c(Cl)cc(C(=O)O)cc1OC(F)(F)F)cn2-c1ccc(C2CC2)nc1 [P-0448, 3-chloro-4-(1-(6-cyclopropylpyridin-3-yl)-5-(5-ethyl-3-methylisoxazol-4-yl)-1H-pyrrolo[2,3-b]pyridin-3-yl)-5-(trifluoromethoxy)benzoic acid]",0.1 to 1000
25,"Cc1nnn(C)c1-c1cnc2c(c1)c(-c1cccc(C(=O)O)c1)cn2[C@@H](C)c1ccccn1 [P-0449, (S)-3-(5-(1,4-dimethyl-1H-1,2,3-triazol-5-yl)-1-(1-(pyridin-2-yl)ethyl)-1H-pyrrolo[2,3-b]pyridin-3-yl)benzoic acid]",0.1 to 1000
